Measurements taken from article PMC8155176, “Reversible modulation of circadian time with chronophotopharmacology” (Nature Communications, 2021).

System: U2OS cells
Experiment: Circadian phase control in U2OS reporter cells
Assay type: cell-based, human
Description: Hypothetically, a transient change in period will lead to a phase change, consequently providing a relevant approach to jetlag treatment. Therefore, we applied visible-light responsive modulator 9 to control the circadian phase (Fig. 7). The compound was initially irradiated with green light for inactivation (cis-enriched 9, Fig. 7a, timepoint A) and applied to U2OS cells for luminescence rhythm measurement. On the next day, the cells were irradiated with violet light for compound activation or kept in dark (Fig. 7a, timepoint B).
Fig. 7 Circadian phase control using chronophotopharmacology. Green light (λmax = 530 nm)-irradiated compound 9 was applied to U2OS cells at 0 h (A). On the next day (B), the cells were irradiated with violet light (λmax = 400 nm) for 0 min (black and green lines), 10 min (light violet line), or 20 min (dark violet line). After 48 h or 72 h (C), the cells were irradiated with green light (λmax = 530 nm) for 0 min (black line) or 30 min (green, light violet, and dark violet lines). Luminescence rhythm profiles (average of n = 6) are shown in a. […] Luminescence is given in arbitrary units. n = 6 biologically independent samples. […]
Stable U2OS reporter cells harboring Bmal1-dLuc reporter were suspended in phenol red-free culture medium [DMEM (D2902, Sigma) supplemented with 10% fetal bovine serum, 3.5 mg/mL D-glucose, 3.7 mg/mL sodium bicarbonate, 0.29 mg/mL L-glutamine, 100 units/mL penicillin, and 100 µg/mL streptomycin] and plated onto a white, solid-bottom 384-well plates at 30 µL (3000 cells) per well. […] Luminescence was recorded every 100 min in a microplate reader, Infinite M200Pro (Tecan). For the phase control experiments, cellular light irradiation was performed in a dark 32 °C room and luminescence was recorded in a microplate reader Synergy H1 (BioTek) placed in the same room, to avoid possible effect of transient temperature change on the phase. Circadian period and phase were determined from luminescence rhythms by a curve fitting program MultiCycle (Actimetrics). […]

CC(C)n1cnc2c(NCc3ccc(F)c(/N=N/c4c(F)cccc4F)c3F)ncnc21 [Compound 9]
period after green light reversal (after time point C): returned to normal
phase delay compared with dark samples, 48 h condition (violet light activation, reversed by green light after 48 h): 2 h
phase delay compared with dark samples, 72 h condition (violet light activation, reversed by green light after 72 h): 4 h
